The text below walks through data of patent US8754209B2, “Indazole derivatives or pharmaceutically acceptable salts thereof as protein kinase inhibitors for proliferative diseases treatment, and a pharmaceutical composition containing the same as an active ingredient” (Korea Institute of Science and Technology, priority 2009, dated 2014).

The subject of assay [1] is A375P cells. Nature of the assay: Anti-proliferative activity on A375P cell line (MTT assay). It is filed as cell-based. Conditions: A375P human melanoma cell line. On the procedure:
A375P cells were purchased from American Type Culture Collection (ATCC, Rockville, Md., US) and maintained in DMEM medium (Welgene, Daegu, Korea) supplemented with 10% FBS (Welgene) and 1% penicillin/streptomycin (Welgene) in a humidified atmosphere with 5% CO2 at 37° C. The A375P cells were taken from culture substrate with 0.05% trypsin-0.02% EDTA and plated at a density of 5×10^3 cells/well in 96 well plates and then incubated at 37° C. for 24 h in a humidified atmosphere with 5% CO2 prior to treatment of various concentration (three fold serial dilution, 12 points) of test compounds. The A357P cell viability was assessed by the conventional 3-(4,5-dimethylthiazol-2-yl)-2,5-diphenyltetrazolium bromide (MTT) reduction assay. MTT assays were carried out with CellTiter 96 (Promega) according to the manufacturer's instructions.
After 1 day, 0.5 μl the representative compounds of the examples were added thereto. The representative compounds of the examples were prepared by three fold serial dilution of 10 mM stock solution in DMSO, 12 point (final conc. DMSO 0.5%). Then, 15 μl dye was added in each well. After 2 h, 100 μl stop solution was added each well. After 24 h, absorbance was measured. The absorbance at 590 nm was recorded using EnVision2103 (PerkinElmer; Boston, Mass., US). The IC50 value was calculated using GraphPad Prism 4.0 software.
On the technique in general: Tetrazolium assays rely on reduction of a dye to a coloured formazan, in cell work by metabolically active cells.

Assay [2] concerns the target B-Raf-V600E (Homo sapiens, UniProt P15056, V600E). Nature of the assay: B-Raf kinase enzyme assay (MEK1/Erk2 cascade, MBP phosphorylation, 32P). It is filed as biochemical. Conditions: read-out: b-raf-V600Ekinase inhibitory activity (IC50). On the procedure: <1-1> Activation of MAP Kinase 2/Erk2 by B-raf
10 μl magnesium chloride/ATP solution (500 uM ATP, 75 mM magnesium chloride) was seeded in eppendorf tube. 2.5 μl B-Raf-V600E was seed (final conc. 1 ng) in eppendorf tube and treated with 1.6 μl deactivated MEK1 (final conc. 0.4 μg). The mixture was treated with 4 μl deactivated MAP kinase 2/Erk2 (final conc. 1.0 ug). And the mixture was treated with 1 μl example solution (10 mM) dissolved in dimethyl sulfoxide which was orderly diluted. Then, assay dilution buffer I (ADBI I) was added thereto (final vol. 38 μl) to make the final volume of 38 μl, and made it reacted at 30° C. for 30 min. 5 μl of resulting solution was used for the following experiment.
<1-2> Phosphorylation of Myelin basic protein (MBP)
5 μl of the above resulting solution was treated with 10 μl assay dilution buffer, and then treated with 10 μl Myelin basic protein (MBP, 2 mg/Ml). The mixture solution was treated with 10 μl of diluted (1/10) [γ^32P] ATP (100 uCi/vial) which is diluted at 30° C. for 10 min. 25 μl of the mixture solution was spotted onto a P81 paper, and the paper was washed four times with 0.75% phosphoric acid for 10 min and once with acetone for 5 min in scintillation vial. After 5 Ml of scintillation cocktail solution was added in the scintillation vial, signals were analyzed by scintillation counter.

Chain of B-Raf-V600E (P15056 whole entry V600E): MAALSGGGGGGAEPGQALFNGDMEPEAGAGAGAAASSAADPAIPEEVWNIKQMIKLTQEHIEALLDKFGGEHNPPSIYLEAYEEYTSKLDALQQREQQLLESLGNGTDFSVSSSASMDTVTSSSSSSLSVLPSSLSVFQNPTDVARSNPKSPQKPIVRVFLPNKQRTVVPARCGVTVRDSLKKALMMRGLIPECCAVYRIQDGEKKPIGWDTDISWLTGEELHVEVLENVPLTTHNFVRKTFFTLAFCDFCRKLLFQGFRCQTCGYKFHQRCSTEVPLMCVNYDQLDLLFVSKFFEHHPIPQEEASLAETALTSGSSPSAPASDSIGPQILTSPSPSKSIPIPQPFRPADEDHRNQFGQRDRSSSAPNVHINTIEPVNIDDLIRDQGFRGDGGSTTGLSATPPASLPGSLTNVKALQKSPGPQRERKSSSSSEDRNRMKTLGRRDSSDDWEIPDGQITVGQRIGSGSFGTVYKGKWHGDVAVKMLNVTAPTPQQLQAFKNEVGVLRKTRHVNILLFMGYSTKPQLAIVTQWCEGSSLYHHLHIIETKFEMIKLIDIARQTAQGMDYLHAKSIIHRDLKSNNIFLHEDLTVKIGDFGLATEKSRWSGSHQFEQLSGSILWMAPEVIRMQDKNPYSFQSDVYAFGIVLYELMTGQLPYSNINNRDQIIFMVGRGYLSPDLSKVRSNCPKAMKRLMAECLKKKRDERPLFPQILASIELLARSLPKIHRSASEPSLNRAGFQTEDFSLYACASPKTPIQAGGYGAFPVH

As usually defined, the GI50 is the concentration at which growth is held to half of that of the control. Read a low GI50 as greater sensitivity of the cells. One may read the IC50 as the concentration that gives 50% inhibition. In assay [1], `CCOC(=O)c1n[nH]c2cc(-c3ccc(NC(=O)c4cnn(-c5ccc(OC)cc5)c4C(F)(F)F)cc3)ccc12` [Example 8, ethyl 6-(4-(1-(4-methoxyphenyl)-5-(trifluoromethyl)-1H-pyrazole-4-carboxamido)phenyl)-1H-indazole-3-carboxylate] showed a GI50 of under 10 µM. Besides, in assay [2], the concentration for half-maximal inhibition (IC50) was under 10 µM.

With `CCOC(=O)c1n[nH]c2cc(-c3ccc(NC(=O)c4csc(-c5ccncc5)n4)cc3)ccc12` [Example 17, ethyl 6-(4-(2-(pyridin-4-yl)thiazole-4-carboxamido)phenyl)-1H-indazole-3-carboxylate], the IC50 in assay [2] is under 10 µM. Turning to `CCOC(=O)c1n[nH]c2cc(-c3ccc(NC(=O)Nc4ccc(Cl)c(C(F)(F)F)c4)cc3)ccc12` [Example 21, ethyl 6-(4-(3-(4-chloro-3-(trifluoromethyl)phenyl)ureido)phenyl)-1H-indazole-3-carboxylate], the concentration for 50% growth inhibition (GI50) in assay [1] is under 10 µM. For the same molecule, in assay [2], the concentration for half-maximal inhibition (IC50) was under 10 µM. Consider `CNC(=O)c1n[nH]c2cc(-c3ccc(NC(=O)c4cccc(C(F)(F)F)c4)cc3)ccc12` [Example 24, N-methyl-6-(4-(3-(trifluoromethyl)benzamido)phenyl)-1H-indazole-3-carboxamide], for which the GI50 in assay [1] was under 10 µM. Besides, the IC50 in assay [2] is under 10 µM.

`CCOC(=O)c1n[nH]c2cc(-c3cccc(NC(=O)Cc4ccc(OC)c(OC)c4)c3)ccc12` [Example 48, ethyl 6-(3-(2-(3,4-dimethoxyphenyl)acetamido)phenyl)-1H-indazole-3-carboxylate]: the concentration for 50% growth inhibition (GI50) in assay [1] was under 10 µM. Further, in assay [2], the IC50 is under 10 µM. With `O=C(Nc1cccc(-c2ccc3c(C(=O)NCCN4CCOCC4)n[nH]c3c2)c1)c1cccc(C(F)(F)F)c1` [Example 50, N-(2-morpholinoethyl)-6-(3-(3-(trifluoromethyl)benzamido)phenyl)-1H-indazole-3-carboxamide], in assay [2], the IC50 was under 10 µM.

For the molecule `CCOC(=O)c1n[nH]c2cc(-c3cccc(NC(=O)Nc4cccc(Cl)c4Cl)c3)ccc12` [Example 54, ethyl 6-(3-(3-(2,3-dichlorophenyl)ureido)phenyl)-1H-indazole-3-carboxylate], in assay [1], the GI50 was under 10 µM. Also, the IC50 in assay [2] is under 10 µM. For the molecule `CCOC(=O)c1n[nH]c2cc(-c3cc(NC(=O)Nc4ccc(Cl)c(C(F)(F)F)c4)ccc3C)ccc12` [Example 57, ethyl 6-(5-(3-(4-chloro-3-(trifluoromethyl)phenyl)ureido)-2-methylphenyl)-1H-indazole-3-carboxylate], the GI50 in assay [1] is under 10 µM. Also, the IC50 in assay [2] is under 10 µM. As for `CCNC(=O)c1n[nH]c2cc(-c3cccc(NC(=O)Nc4ccc(Cl)c(Cl)c4)c3)ccc12` [Example 62, 6-(3-(3-(3,4-dichlorophenyl)ureido)phenyl)-N-ethyl-1H-indazole-3-carboxamide], the GI50 in assay [1] is under 10 µM. On the same count and under the same terms, in the case of `CCNC(=O)c1n[nH]c2cc(-c3cccc(NC(=O)Nc4ccc(C)cc4C)c3)ccc12` [Example 63, 6-(3-(3-(2,4-dimethylphenyl)ureido)phenyl)-N-ethyl-1H-indazole-3-carboxamide] it was under 10 µM. The same measure, in the same setting: in the case of `Cc1ccc(NC(=O)Nc2ccc(Cl)c(C(F)(F)F)c2)cc1-c1ccc2c(C(=O)NCCN(C)C)n[nH]c2c1` [Example 65, 6-(5-(3-(4-chloro-3-(trifluoromethyl)phenyl)ureido)-2-methylphenyl)-N-(2-(dimethylamino)ethyl)-1H-indazole-3-carboxamide] it was under 10 µM; in that of `Cc1ccc(NC(=O)Nc2ccc(Cl)c(C(F)(F)F)c2)cc1-c1ccc2c(C(=O)NC3CC3)n[nH]c2c1` [Example 66, 6-(5-(3-(4-chloro-3-(trifluoromethyl)phenyl)ureido)-2-methylphenyl)-N-cyclopropyl-1H-indazole-3-carboxamide], under 10 µM. In turn, `Cc1ccc(NC(=O)c2cccc(C(F)(F)F)c2)cc1-c1ccc2c(C(=O)NCCN3CCOCC3)n[nH]c2c1` [Example 67, 6-(2-methyl-5-(3-(trifluoromethyl)benzamido)phenyl)-N-(2-morpholinoethyl)-1H-indazole-3-carboxamide] yielded a concentration for 50% growth inhibition (GI50) in assay [1] of under 10 µM.

The molecule `CCOC(=O)c1n[nH]c2cc(-c3cccc(NS(=O)(=O)c4cccc(C(F)(F)F)c4)c3)ccc12` [Example 68, ethyl 6-(3-(3-(trifluoromethyl)phenylsulfonamido)phenyl)-1H-indazole-3-carboxylate] showed a GI50 in assay [1] of under 10 µM. On to `CCOC(=O)c1n[nH]c2cc(-c3cccc(NC(=O)Nc4ccc(CN5CCN(CC)CC5)c(C(F)(F)F)c4)c3)ccc12` [Example 69, ethyl 6-(3-(3-(4-((4-ethylpiperazin-1-yl)methyl)-3-(trifluoromethyl)phenyl)ureido)phenyl)-1H-indazole-3-carboxylate], for which the GI50 in assay [1] was under 10 µM. On the same count and under the same terms, in the case of `COC(=O)c1n[nH]c2cc(-c3cccc(NC(=O)Nc4ccc(N5CCN(C)CC5)c(C(F)(F)F)c4)c3)ccc12` [Example 70, methyl 6-(3-(3-(4-(4-methylpiperazin-1-yl)-3-(trifluoromethyl)phenyl)ureido)phenyl)-1H-indazole-3-carboxylate] it was under 10 µM. The molecule `CCOC(=O)c1n[nH]c2cc(-c3cc(NC(=O)Nc4ccc(N5CCN(C)CC5)c(C(F)(F)F)c4)ccc3C)ccc12` [Example 71, ethyl 6-(2-methyl-5-(3-(4-(4-methylpiperazin-1-yl)-3-(trifluoromethyl)phenyl)ureido)phenyl)-1H-indazole-3-carboxylate] displayed a 50% growth inhibitory concentration (GI50) in assay [1] of under 10 µM. The same measure, in the same setting: in the case of `O=C(Nc1ccc(-c2ccc3[nH]nc(C(=O)NCCN4CCOCC4)c3c2)cc1)Nc1ccc(Cl)c(C(F)(F)F)c1` [Example 72, 5-(4-(3-(4-chloro-3-(trifluoromethyl)phenyl)ureido)phenyl)-N-(2-morpholinoethyl)-1H-indazole-3-carboxamide] it was under 10 µM. Same read-out and setting: in the case of `CNC(=O)c1n[nH]c2cc(-c3cc(NC(=O)c4cc(-n5cnc(C)c5)cc(C(F)(F)F)c4)ccc3C)ccc12` [Example 73, N-methyl-6-(2-methyl-5-(3-(4-methyl-1H-imidazol-1-yl)-5-(trifluoromethyl)benzamido)phenyl)-1H-indazole-3-carboxamide] it was under 10 µM; in that of `CNC(=O)c1n[nH]c2cc(-c3cc(NC(=O)Nc4cc(-n5cnc(C)c5)cc(C(F)(F)F)c4)ccc3C)ccc12` [Example 75, N-methyl-6-(2-methyl-5-(3-(3-(4-methyl-1H-imidazol-1-yl)-5-(trifluoromethyl)phenyl)ureido)phenyl)-1H-indazole-3-carboxamide], under 10 µM. On the same count and under the same terms, in the case of `CCOC(=O)c1n[nH]c2cc(-c3cccc(NC(=O)c4cc(N5CCC(O)CC5)cc(C(F)(F)F)c4)c3)ccc12` [Example 76, ethyl 6-(3-(3-(4-hydroxypiperidin-1-yl)-5-(trifluoromethyl)benzamido)phenyl)-1H-indazole-3-carboxylate] it was under 10 µM.

With `O=C(Nc1cccc(-c2ccc3c(C(=O)NCCN4CCOCC4)n[nH]c3c2)c1)c1cc(N2CCC(O)CC2)cc(C(F)(F)F)c1` [Example 77, 6-(3-(3-(4-hydroxypiperidin-1-yl)-5-(trifluoromethyl)benzamido)phenyl)-N-(2-morpholinoethyl)-1H-indazole-3-carboxamide], the GI50 in assay [1] was under 10 µM. The same measure, in the same setting: in the case of `COC(=O)c1n[nH]c2cc(-c3cccc(NC(=O)c4ccc(OC5CCN(C)CC5)c(C(F)(F)F)c4)c3)ccc12` [Example 78, methyl 6-(3-(4-(1-methylpiperidin-4-yloxy)-3-(trifluoromethyl)benzamido)phenyl)-1H-indazole-3-carboxylate] it was under 10 µM.
